Data from ChEMBL document CHEMBL1201862, “PubChem BioAssay data set” (2004).
The source made the active and inactive calls.

Key:
[1] = target: Voltage-gated inwardly rectifying potassium channel KCNH2 (Homo sapiens, UniProt Q12809); assay: hERG protection from proarrhythmic block, potency, dose response, cell-based, thallium flux (AID 2121); format: ADME
Prothrombin = Prothrombin (Homo sapiens, UniProt P00734); assay: Thrombin 1536 HTS Dose Response Confirmation. [Related pubchem assays: 1046 (Thrombin 1536 HTS; hits were confirmed in this assay)]; format: functional
[2] = HIV-1 Env-mediated cell fusion inhibitors, dose response, CCR5-tropic Env (AID 2279); format: functional
Genome polyprotein = Genome polyprotein (dengue virus type 2, UniProt P29990); assay: Dengue-2 NS5 methyltransferase inhibitors, primary screen, biochemical, confirmation dose response (AID 588689); format: functional
[3] = A cytotoxicity screen of small molecule inhibitors of the PhoP region in Salmonella typhi identified in the primary screen. [Related pubchem assays: 1850, 1864, 1985 ]; format: functional
Estrogen receptor = target: T1, Estrogen receptor (Homo sapiens, UniProt P03372);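 further: potency for inhibiting coactivator peptide recruitment to the receptor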
T1 sequence (P03372 whole entry): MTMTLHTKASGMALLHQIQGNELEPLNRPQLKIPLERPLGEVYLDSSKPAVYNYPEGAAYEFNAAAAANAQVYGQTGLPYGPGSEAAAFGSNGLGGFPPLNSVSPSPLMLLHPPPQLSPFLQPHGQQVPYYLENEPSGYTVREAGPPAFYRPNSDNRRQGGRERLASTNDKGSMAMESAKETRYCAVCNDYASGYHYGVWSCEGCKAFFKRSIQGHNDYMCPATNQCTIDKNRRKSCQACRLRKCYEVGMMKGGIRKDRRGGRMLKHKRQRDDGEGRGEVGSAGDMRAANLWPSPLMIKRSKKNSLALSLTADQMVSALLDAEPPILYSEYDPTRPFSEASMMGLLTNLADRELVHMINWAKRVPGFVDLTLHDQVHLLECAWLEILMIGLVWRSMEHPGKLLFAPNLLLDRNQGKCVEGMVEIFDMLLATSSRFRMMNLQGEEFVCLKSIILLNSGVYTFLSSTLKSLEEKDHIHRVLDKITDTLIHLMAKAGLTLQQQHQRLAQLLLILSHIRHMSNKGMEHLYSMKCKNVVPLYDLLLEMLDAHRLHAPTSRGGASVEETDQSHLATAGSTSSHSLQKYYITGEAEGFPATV

Aminopeptidase N = target: T2, Aminopeptidase N (Plasmodium falciparum FcB1/Columbia, UniProt O96935); assay: P. falciparum M1AAP inhibitors, biochemical, fluorogenic H-Leu-NHMec substrate, 1536-well (AID 1445); parameters: species or system Plasmodium falciparum 3D7, 3D7
T2 sequence (O96935 whole entry): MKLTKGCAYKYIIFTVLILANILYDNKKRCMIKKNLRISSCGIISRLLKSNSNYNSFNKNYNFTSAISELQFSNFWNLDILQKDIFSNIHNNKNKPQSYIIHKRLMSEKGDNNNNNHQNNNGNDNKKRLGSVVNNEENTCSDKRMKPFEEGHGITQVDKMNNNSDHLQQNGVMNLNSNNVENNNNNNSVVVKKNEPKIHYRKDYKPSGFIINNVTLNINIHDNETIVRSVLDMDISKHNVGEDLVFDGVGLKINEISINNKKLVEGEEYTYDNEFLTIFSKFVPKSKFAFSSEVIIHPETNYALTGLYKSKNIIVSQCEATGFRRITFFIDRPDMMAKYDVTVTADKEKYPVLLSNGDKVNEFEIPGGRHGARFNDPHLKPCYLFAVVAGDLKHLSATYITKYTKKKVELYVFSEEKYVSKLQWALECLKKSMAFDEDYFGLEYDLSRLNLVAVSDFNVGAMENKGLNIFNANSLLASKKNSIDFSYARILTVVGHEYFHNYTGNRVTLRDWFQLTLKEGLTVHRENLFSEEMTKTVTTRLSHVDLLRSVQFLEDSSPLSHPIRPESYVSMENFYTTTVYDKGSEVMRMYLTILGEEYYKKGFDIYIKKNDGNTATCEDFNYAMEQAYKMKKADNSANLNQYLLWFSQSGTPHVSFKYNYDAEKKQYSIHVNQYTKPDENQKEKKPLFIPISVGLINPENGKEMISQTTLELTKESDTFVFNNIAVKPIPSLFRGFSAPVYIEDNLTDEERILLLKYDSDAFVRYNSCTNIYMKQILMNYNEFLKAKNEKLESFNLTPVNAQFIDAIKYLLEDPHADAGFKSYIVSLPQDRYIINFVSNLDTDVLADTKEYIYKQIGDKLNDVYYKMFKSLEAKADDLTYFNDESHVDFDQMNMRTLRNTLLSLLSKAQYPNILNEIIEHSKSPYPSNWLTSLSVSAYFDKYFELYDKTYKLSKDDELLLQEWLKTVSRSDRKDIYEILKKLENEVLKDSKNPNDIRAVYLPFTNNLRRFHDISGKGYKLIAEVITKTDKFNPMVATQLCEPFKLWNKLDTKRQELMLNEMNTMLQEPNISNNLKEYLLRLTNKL

[4] = target: T3, Calpain-2 catalytic subunit (Sus scrofa, UniProt P43367); assay: pig calpain II inhibitor potency, dose response, biochemical, fluorogenic peptide substrate (AID 1420); format: functional
T3 sequence (P43367 whole entry): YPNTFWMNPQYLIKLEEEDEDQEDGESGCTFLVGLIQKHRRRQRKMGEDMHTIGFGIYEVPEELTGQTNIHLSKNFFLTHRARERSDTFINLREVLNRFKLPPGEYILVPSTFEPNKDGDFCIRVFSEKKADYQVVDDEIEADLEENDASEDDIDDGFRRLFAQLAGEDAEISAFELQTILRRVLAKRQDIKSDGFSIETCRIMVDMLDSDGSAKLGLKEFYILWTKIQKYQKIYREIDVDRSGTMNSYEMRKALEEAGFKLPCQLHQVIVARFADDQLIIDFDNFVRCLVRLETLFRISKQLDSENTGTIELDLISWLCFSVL

[5] = target: Induced myeloid leukemia cell differentiation protein Mcl-1 (Homo sapiens, UniProt Q07820); format: functional
[6] = target: T4, Replicative DNA helicase DnaB (Mycobacterium tuberculosis, UniProt P9WMR3); assay: DnaB intein splicing inhibitors, dose response, biochemical, cell-free fluorescence (AID 449749); format: functional
T4 sequence (P9WMR3 whole entry): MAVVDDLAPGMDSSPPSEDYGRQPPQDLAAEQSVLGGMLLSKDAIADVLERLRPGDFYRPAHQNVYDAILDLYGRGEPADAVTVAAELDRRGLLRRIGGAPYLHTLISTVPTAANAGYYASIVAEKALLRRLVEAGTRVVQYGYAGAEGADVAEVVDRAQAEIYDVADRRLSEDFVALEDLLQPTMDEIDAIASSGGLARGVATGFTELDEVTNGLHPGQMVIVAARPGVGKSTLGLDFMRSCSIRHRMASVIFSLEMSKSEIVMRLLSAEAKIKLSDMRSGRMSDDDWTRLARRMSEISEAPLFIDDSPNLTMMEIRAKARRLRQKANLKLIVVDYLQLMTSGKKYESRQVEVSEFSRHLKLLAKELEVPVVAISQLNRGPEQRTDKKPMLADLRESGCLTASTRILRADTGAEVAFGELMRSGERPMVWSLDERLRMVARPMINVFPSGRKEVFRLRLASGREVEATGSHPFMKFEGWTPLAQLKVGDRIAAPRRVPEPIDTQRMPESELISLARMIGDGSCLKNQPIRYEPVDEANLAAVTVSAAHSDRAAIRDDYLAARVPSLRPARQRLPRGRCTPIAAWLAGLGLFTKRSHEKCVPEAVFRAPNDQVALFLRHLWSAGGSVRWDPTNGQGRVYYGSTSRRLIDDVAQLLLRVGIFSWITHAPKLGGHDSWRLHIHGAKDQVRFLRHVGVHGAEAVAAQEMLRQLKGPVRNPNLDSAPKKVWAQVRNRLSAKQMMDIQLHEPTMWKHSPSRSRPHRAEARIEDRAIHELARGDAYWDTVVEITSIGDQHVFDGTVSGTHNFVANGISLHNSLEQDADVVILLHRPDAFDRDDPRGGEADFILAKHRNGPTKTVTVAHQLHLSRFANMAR

Protein RecA = target: T5, Protein RecA (Mycobacterium tuberculosis, UniProt P9WHJ3); assay: Fluorescence Cell-Free Homogeneous Dose Retest to Identify Inhibitors of RecA-Intein Splicing Activity. [Related pubchem assays (depositor defined):AID2097, AID2223, AID489010, AID492950]; format: functional
T5 sequence (P9WHJ3 whole entry): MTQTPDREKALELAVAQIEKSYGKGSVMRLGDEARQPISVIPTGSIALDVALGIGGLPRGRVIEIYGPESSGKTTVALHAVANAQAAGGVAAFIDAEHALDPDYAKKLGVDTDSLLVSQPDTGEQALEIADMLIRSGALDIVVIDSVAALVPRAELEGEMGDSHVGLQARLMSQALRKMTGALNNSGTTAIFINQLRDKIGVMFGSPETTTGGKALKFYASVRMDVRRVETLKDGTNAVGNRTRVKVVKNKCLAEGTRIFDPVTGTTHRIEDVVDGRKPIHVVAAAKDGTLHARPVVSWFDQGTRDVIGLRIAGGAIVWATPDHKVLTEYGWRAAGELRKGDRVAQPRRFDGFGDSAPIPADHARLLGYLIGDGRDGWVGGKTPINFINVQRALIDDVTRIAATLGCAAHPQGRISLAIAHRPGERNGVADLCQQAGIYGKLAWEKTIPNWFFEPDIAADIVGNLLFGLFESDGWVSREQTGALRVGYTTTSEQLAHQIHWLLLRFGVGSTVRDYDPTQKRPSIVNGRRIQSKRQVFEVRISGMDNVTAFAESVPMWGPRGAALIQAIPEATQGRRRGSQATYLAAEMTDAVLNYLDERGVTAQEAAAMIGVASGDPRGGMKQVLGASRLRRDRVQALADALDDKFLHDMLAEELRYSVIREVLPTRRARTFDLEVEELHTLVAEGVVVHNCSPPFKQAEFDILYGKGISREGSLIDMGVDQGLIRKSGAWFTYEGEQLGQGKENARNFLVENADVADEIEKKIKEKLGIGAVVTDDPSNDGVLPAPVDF

[7] = target: T6, Rac GTPase-activating protein 1 (Homo sapiens, UniProt Q9H0H5); assay: MgcRacGAP GTPase-activating activity inhibitors, confirmation, biochemical, ADP Hunter fluorescence, primary and confirmatory (AID 624330); format: functional
T6 sequence (Q9H0H5 whole entry): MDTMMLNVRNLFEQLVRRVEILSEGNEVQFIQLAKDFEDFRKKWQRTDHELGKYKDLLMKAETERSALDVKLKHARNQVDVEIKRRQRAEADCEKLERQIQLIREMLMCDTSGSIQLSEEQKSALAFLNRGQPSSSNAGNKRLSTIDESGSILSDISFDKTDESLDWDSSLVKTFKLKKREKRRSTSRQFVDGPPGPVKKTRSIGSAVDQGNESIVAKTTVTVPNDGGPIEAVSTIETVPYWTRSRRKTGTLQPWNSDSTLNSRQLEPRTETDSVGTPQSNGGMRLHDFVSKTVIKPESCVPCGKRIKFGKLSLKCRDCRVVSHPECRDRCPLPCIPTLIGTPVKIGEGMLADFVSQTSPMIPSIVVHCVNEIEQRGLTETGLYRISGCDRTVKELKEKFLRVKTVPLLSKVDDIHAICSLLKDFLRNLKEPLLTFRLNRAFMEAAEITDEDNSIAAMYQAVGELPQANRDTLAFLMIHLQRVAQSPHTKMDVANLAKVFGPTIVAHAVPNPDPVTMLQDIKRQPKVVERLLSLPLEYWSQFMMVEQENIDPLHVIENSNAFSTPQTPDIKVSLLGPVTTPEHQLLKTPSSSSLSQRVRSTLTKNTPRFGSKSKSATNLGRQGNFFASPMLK

Chain of Voltage-gated inwardly rectifying potassium channel KCNH2 (Q12809 whole entry): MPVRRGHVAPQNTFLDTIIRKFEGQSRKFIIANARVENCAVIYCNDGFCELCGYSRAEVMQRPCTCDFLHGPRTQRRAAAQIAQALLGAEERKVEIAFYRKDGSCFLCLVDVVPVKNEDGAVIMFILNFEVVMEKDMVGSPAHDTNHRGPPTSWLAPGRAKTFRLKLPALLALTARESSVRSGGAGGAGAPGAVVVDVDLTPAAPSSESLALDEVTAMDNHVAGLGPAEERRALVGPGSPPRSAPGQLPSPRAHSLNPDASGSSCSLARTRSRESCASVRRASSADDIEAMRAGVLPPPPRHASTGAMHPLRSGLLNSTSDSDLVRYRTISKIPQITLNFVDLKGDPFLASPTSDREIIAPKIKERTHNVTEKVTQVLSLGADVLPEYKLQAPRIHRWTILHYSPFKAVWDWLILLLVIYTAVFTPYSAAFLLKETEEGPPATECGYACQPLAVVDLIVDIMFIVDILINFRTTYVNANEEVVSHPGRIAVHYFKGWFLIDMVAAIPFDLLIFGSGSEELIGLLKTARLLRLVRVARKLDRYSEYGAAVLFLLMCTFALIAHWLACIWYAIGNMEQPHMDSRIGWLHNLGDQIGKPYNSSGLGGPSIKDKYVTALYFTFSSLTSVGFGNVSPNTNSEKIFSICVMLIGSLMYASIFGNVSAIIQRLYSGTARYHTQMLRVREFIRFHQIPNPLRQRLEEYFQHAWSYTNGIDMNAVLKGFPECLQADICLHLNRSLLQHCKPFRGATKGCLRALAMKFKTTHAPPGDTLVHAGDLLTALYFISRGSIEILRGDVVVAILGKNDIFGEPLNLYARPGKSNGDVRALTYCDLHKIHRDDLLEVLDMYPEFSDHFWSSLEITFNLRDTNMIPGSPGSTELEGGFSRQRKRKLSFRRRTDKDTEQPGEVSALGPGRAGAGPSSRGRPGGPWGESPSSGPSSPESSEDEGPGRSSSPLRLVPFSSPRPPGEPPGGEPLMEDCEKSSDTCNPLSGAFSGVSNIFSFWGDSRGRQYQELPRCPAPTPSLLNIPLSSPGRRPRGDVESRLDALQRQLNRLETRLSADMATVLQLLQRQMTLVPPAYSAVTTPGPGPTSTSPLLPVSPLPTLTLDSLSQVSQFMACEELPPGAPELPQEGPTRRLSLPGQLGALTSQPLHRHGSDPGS
Chain of Induced myeloid leukemia cell differentiation protein Mcl-1 (Q07820 whole entry): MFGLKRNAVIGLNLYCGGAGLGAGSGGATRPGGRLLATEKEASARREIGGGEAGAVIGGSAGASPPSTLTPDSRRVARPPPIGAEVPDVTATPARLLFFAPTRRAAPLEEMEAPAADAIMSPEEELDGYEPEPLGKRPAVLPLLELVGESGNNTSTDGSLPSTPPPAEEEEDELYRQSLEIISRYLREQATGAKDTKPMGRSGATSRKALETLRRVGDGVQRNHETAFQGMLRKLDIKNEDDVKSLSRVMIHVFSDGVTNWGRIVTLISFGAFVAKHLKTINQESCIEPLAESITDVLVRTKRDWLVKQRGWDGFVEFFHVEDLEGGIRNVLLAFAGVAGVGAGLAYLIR
Chain of Genome polyprotein (P29990 2492-3391 limits assumed): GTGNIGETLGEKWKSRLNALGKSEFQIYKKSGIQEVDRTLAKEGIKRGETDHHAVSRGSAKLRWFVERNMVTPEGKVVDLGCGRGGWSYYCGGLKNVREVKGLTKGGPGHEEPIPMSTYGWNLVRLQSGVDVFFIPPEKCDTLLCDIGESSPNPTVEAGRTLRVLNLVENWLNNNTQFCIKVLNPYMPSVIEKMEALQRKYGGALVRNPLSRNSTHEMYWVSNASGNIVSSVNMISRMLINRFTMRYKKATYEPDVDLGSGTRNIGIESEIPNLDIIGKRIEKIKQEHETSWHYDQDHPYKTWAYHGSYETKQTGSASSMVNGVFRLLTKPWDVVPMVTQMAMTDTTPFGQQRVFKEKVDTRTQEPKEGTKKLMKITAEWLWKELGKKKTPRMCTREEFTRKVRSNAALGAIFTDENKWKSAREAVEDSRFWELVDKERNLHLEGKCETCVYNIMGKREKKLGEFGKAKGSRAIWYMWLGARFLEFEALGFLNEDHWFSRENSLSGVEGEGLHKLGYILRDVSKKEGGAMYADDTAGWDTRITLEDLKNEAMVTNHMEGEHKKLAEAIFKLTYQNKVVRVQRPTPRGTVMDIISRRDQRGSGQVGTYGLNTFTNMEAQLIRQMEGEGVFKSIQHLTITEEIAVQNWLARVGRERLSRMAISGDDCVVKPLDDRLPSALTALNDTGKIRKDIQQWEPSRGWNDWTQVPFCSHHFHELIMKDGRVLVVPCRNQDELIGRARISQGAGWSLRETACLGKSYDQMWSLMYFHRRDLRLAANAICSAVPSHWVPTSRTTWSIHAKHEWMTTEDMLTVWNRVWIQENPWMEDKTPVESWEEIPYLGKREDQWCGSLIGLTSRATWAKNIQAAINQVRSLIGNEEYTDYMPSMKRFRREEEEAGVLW

Compound: Cc1cccc(NC(=S)NC(=O)c2cc(-c3ccccc3)nc3ccccc23)c1
- EC50 [1]: 0.53 µM (active)

Compound: O=C(NCc1ccccc1)C1=C[C@@H](c2coc3ccccc3c2=O)C[C@@H](OCCCCO)O1
- IC50 (Prothrombin): > 50 µM (not active)

Compound: NNC(=O)CN1C(=O)Nc2ccc(Br)cc2C1c1ccccc1 (stereo unspecified)
- IC50 (Prothrombin): > 50 µM (not active)

Compound: O=C(CCN1C(=O)/C(=C\C=C\c2ccccc2)SC1=S)Nc1ccccc1C(=O)O
- IC50 [2]: > 50 µM (active)
- IC50 (Genome polyprotein): 64.3 µM (active)

Compound: O=C1N2CCSC2=NC1(NS(=O)(=O)c1ccccc1)C(F)(F)F (stereo unspecified)
- EC50 [1]: 2.27 µM (active)

Compound: COc1ccc(N2CCN(C(CNC(=O)c3ccc4c(c3)OCO4)c3ccco3)CC2)cc1 (stereo unspecified)
- EC50 [3]: > 50 µM (active)

Compound: CCC(C)n1nc(O)cc1N (stereo unspecified)
- IC50 (Estrogen receptor): > 50 µM (not active)

Compound: COc1cc(/C=C2/SC(=S)NC2=O)ccc1OS(=O)(=O)c1ccc(C)cc1
- IC50 (Aminopeptidase N): 51.8 µM (active)
- IC50 [2]: 10.3 µM (active)
- IC50 [4]: 13.4 µM (not active)
- IC50 [5]: 3.44 µM (active)
- AC50 [6]: 3.21 µM (active)
- EC50 (Protein RecA): 11.9 µM (active)

Compound: Cc1ccc(NC(=O)CN(C)C2CCCCC2)cc1Br
- EC50 [3]: > 50 µM (active)
- IC50 [7]: 137 µM (active)

Compound: CCN(CC)c1ccc(CNc2nc3ccccc3n2C)cc1
- EC50 [3]: > 50 µM (active)

Compound: NC(=O)c1cccnc1Nc1cccc([N+](=O)[O-])c1
- EC50 [1]: 2.98 µM (active)

Compound: CN(C(=S)NC(=O)c1ccc(F)cc1)C1CCCCC1
- EC50 [1]: 8.79 µM (active)

Compound: C=C(C)Cn1c(SCC#N)nc2ccccc2c1=O
- EC50 [3]: > 50 µM (active)

Compound: CCc1nnc(NC(=O)CCC(=O)N2CCCC2)s1
- IC50 (Prothrombin): > 50 µM (not active)
